Data from ChEMBL document CHEMBL3045192, “Medicinal chemistry of polycyclic cage compounds in drug discovery research” (Med Chem Res, 2008).
The source made the active and inactive calls. The calls are words filed in the database; no cut-off is given here.

What was measured:
Human alphaherpesvirus 2 = experiment: Antiviral activity against Human herpesvirus 2; assay type: functional, organism-based
Influenza A virus = experiment: Antiviral activity against Influenza A virus A2/Taiwan; assay type: functional, organism-based

How did the Activity (Human alphaherpesvirus 2) turn out when `NC1C2C3CC4C5CC(C42)C1(c1ccccc1)C53` (racemic) was run?
Its Activity is “Active”.

And the Activity (Influenza A virus)?
The Activity was “Active”.
